Laboratory results published in patent publication US11484543B2, “Compositions and methods for diagnosing and treating diseases and disorders associated with mutant KCNJ5” (The Rockefeller University, priority 2017, dated 2022).
Changes are numbered by the printed parent chain.

Columns and labels:
KCNJ5^G151R = biological target: T1, KCNJ5^G151R (Homo sapiens, UniProt P48544, G151R); experiment: cell-based; type: cell-based
T1 construct: expressed in transfected cells
T1 sequence (P48544 1-419 G151R): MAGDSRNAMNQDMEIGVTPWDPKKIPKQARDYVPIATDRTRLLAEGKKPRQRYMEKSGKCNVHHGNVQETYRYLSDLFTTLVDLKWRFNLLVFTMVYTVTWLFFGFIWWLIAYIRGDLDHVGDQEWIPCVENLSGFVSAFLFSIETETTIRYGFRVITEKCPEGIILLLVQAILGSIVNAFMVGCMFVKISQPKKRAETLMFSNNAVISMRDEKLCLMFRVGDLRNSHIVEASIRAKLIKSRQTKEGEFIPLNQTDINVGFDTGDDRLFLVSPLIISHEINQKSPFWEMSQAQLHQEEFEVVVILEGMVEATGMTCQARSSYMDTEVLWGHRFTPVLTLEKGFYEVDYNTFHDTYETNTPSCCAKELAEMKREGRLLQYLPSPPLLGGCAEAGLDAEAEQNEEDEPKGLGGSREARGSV
In short: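 Viability is read as cellular ATP by CellTiter-Glo luminescence 72 h later at 37 °C. Uninduced and induced untreated cells set 100% and 0% effect; curves use a 4-parameter logistic fit.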

KCNJ5^L168R = biological target: T2, KCNJ5^L168R (Homo sapiens, UniProt P48544, L168R); experiment: Cell viability assay (ATP, CellTiter-Glo): rescue of KCNJ5^L168R-induced lethality in inducible HEK293 cells; type: cell-based
T2 construct: expressed in transfected cells
T2 sequence (P48544 1-419 L168R): T1 sequence (P48544 1-419 G151R) with R151G, L168R
Experimental: (§1) WT or mutant human KCNJ5 cDNAs (Choi et al., 2011, Science 331:768-772) were subcloned into the pcDNA5/FRT/TO vector using BamHI and HindIII. Single copies of WT or mutant human KCNJ5 cDNAs expressed under the control of tetracycline-inducible promoter were introduced into HEK293 cells using the Flp-in T-Rex System (Invitrogen) according to the manufacturer's instructions. Cells were grown in selective media containing 10% Tet-system approved FBS (Clontech) until induction.
Assay plates were centrifuged and incubated overnight at 37° C. 20 nL was transferred from the compound source plate to the cell assay plate using an Aquarius (Tecan) with a 384-well pin tool (V&P Scientific). The final concentration of compound for screening was 10 μM and the final DMSO concentration was 0.1%. 1 μL of tetracycline (final concentration 1 μg/mL) was added to compound containing and negative control wells by Multidrop Combi to induce expression. 1 μL of media was added to positive control wells. Assay plates were centrifuged and incubated for 72 hours at 37° C., 5% CO2. CellTiter-Glo (Promega) was used to measure cell viability in the assay wells according to the manufacturer's instructions. 10 μL/well of CellTiter-Glo reagent was added to the assay plates using a MultiDrop Combi. The plates were shaken on a Thermomixer R (Eppendorf) at 1100 rpm for 1 minute and incubated in the dark for 10 minutes at room temperature. Luminescence was read on an Envision plate reader (PerkinElmer) with 0.3 second sampling time per well. Raw data (luminescence counts per second) was normalized to percent effect by the formula 100−(((sample−negative control mean)/(positive control mean−negative control mean))*100).
Data was analyzed using the programs Excel (Microsoft) and Prism (GraphPad). Errors are SD unless otherwise indicated in the legend. Dose-response curves were fitted with a four-parameter logistic equation: F(x)=D+(A−D)/(1+(x/C)^B), with A=minimum inhibition B=Hill's slope C=inflection point D=maximum inhibition Synthesis of Macrolide Derivatives
Cellular ATP levels were measured as a proxy for cell viability, using a commercially available luciferase assay (Crouch et al., 1993, Proc. Natl. Acad. Sci. U.S.A. 109:2533-2538).
Conditions were designed to maximize reproducibility and the signal-to-background ratios (S/B) (Zhang et al., 1999, J. Biomol. Screen 4:67-73) comparing ATP level in uninduced and induced cells. Screening was performed in 384-well plates; compounds were added 24 hours after plating, and channel expression was induced immediately after compound addition. ATP levels were measured 72 hours after induction.

KCNJ5^WT = biological target: T3, KCNJ5^WT (Homo sapiens, UniProt P48544); experiment: Membrane potential assay (FLIPR dye) in inducible KCNJ5^WT HEK293 cells; type: cell-based
T3 construct: expressed in transfected cells
T3 sequence (P48544 1-419): T1 sequence (P48544 1-419 G151R) with R151G
Experimental: as §1, with “Single” for “WT or mutant human KCNJ5 cDNAs (Choi et al., 2011, Science 331:768-772) were subcloned into the pcDNA5/FRT/TO vector using BamHI and HindIII. Single”
20 μL of WT cells were plated into sterile black with clear bottom tissue culture-treated 384-well plates (Corning) at a density of 10000 cells/well using a Multidrop Combi. Assay plates were centrifuged at 500 rpm for 10 seconds and incubated overnight at 37° C. in a humidified 5% CO2 incubator. After the overnight incubation, 1 μL of tetracycline (final conc. 1 μg/mL) was added to all wells by Multidrop Combi to induce KCNJ5. Assay plates were centrifuged at 500 rpm for 10 seconds and incubated overnight at 37° C. in a humidified 5% CO2 incubator. The next day, 10 μL of medium was removed from each well using a PlateMate Plus (Thermo Scientific). 10 μL of Blue Formula FLIPR membrane potential dye (Molecular Devices) was added to cells using a Multichannel pipettor. Assay plates were incubated for 30 minutes. at 37° C. After incubation, 20 nL was transferred twice from the compound source plate to the cell assay plate using an Aquarius with a 384-well pin tool for a total transfer volume of 40 nL and a final DMSO concentration of 0.2%. 1 μL of 20 mM BaCl2 was added to positive control wells using a Multichannel pipettor. The assay plate was incubated 20 minutes at room temperature in the dark.
Changes in membrane potential were detected using a well-established fluorescence-based measure of membrane potential (FIG. 4).

[1] = in vivo; cited from earlier work
KCNJ3/KCNJ5^WT = biological target: T4, KCNJ3/KCNJ5^WT (Homo sapiens, UniProt P48544); experiment: Perforated whole-cell patch clamp, KCNJ3/KCNJ5^WT heterotetramers in HEK293T cells; type: cell-based; conditions: 1 mM BaCl2
T4 construct: GFP; expressed in transfected cells; host or cells: HEK293T (American Type Culture Collection), transient co-transfection
T4 sequence (P48544 1-419): T1 sequence (P48544 1-419 G151R) with R151G
T4 sequence (P48549 1-501 partner): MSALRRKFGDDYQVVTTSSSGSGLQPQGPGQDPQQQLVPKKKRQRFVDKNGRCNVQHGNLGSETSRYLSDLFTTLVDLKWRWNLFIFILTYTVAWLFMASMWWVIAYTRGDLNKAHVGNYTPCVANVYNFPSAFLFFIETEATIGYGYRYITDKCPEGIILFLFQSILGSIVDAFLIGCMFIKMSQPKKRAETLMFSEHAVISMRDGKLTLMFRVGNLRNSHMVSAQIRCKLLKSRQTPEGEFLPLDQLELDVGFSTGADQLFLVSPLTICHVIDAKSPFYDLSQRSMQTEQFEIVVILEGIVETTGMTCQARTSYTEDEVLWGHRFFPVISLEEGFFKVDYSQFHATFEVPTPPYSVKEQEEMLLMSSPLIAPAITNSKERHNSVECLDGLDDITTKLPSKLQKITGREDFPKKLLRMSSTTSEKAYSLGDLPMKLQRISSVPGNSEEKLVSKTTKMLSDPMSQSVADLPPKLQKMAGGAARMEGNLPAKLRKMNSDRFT
Experimental: (§2) HEK293T cells (American Type Culture Collection) were used for transient expression of GFP-tagged KCNJ5 or KCNJ3. The cells were grown in Dulbecco's modified Eagle medium (DMEM; Invitrogen) supplemented with 10% FBS (Invitrogen) in 5% CO2 and 95% air at 37° C. Cells were grown to 50-70% confluence for transfection, and the corresponding cDNAs (Choi et al., 2011, Science 331:768-772) were simultaneously applied to the cells using TurboFect transfection reagent according to the manufacturer's protocol (Fermentas). […]
(§3) Within 24 hr after transfection, the cells were treated with trypsin-containing medium (TrypLE Express) (Gibco) for 10 minutes to detach the cells. […] Fluorescence signal (an indication of positive transfection) was detected with an intensified video imaging system including a SIT 68 camera (Long Island Industries). […] After forming a high resistance seal (>2 GΩ), the membrane capacitance was monitored until the whole-cell patch configuration was formed. The cell membrane capacitance was measured and compensated. The K/cation currents were measured from −80 mV to 20 mV with 20 mV steps by an Axon 200A patch-clamp amplifier. The currents were low-pass filtered at 1 KHz and digitized by an Axon interface (Digidata 1200) and were analyzed using the pClamp software system 9 (Axon). […]

KCNJ3/KCNJ5^L168R = biological target: T5, KCNJ3/KCNJ5^L168R (Homo sapiens, UniProt P48544, L168R); experiment: Perforated whole-cell patch clamp, KCNJ3/KCNJ5^L168R heterotetramers in HEK293T cells; type: cell-based; conditions: 1 mM BaCl2, after 20 μM roxithromycin
T5 construct: GFP; expressed in transfected cells; host or cells: HEK293T (American Type Culture Collection), transient co-transfection
T5 sequence (P48544 1-419 L168R): T1 sequence (P48544 1-419 G151R) with R151G, L168R
T5 sequence (P48549 1-501 partner): T4 sequence (P48549 1-501 partner)
Experimental: as §2, §3

[2] = 10-point dilution 20 to 0.0391 μM, N=3, four-parameter fit
[3] = tested as in FIG. 7 (FIGS. 9 and 10)

For CC[C@@H](O)[C@@](C)(O)[C@@H]1OC(=O)[C@H](C)[C@@H](O[C@H]2C[C@@](C)(OC)[C@@H](O)[C@H](C)O2)[C@H](C)[C@@H](O[C@@H]2O[C@H](C)C[C@H](N(C)C)[C@H]2O)[C@@]2(C)CC(C)=C(O2)[C@@H]1C [Pseudo Erythromycin A Enol Ether, pseudo erythromycin A enol ether], the G151R maximum inhibition (KCNJ5^G151R; [2]) was 11.13%, the G151R minimum inhibition (KCNJ5^G151R; [2]) was 1.58% and the IC50 (KCNJ5^G151R; [2]) was 650 nM. The “L168R IC50” value (KCNJ5^L168R; [2]) was “No Fit” and the “WT IC50” value (KCNJ5^WT; [2]) was “No fit”.

For C[C@]12CCC(=O)C=C1CC[C@@H]1[C@@H]2[C@@H](O)C[C@]2(C=O)[C@@H](C(=O)CO)CC[C@@H]12 [aldosterone], the plasma half-life [1] is given as about 30 min.

With [Ba+2].[Cl-].[Cl-] [barium, BaCl2] the “barium sensitivity of KCNJ3/KCNJ5^WT currents” value (KCNJ3/KCNJ5^WT) was “sensitive” and the “block of remaining KCNJ3/KCNJ5^L168R current” value (KCNJ3/KCNJ5^L168R) was “blocked”.

For “N-demethyl-8,9-anhydroerythromycin A 6,9-hemiacetal [PLUX36]”, the “inhibition of KCNJ5^G151R by synthesized macrolide derivatives” value (KCNJ5^G151R; [3]) was “significant inhibition”, the “inhibition of KCNJ5^L168R by synthesized macrolide derivatives” value (KCNJ5^L168R; [3]) was “significant inhibition” and the “inhibition of KCNJ5^WT by synthesized macrolide derivatives” value (KCNJ5^WT; [3]) was “no inhibition”.
